Data on nine compounds can be found in BindingDB's records for patent US8940738 (Mitsubishi Tanabe Pharma, 2015).

Broadly, the IC50 is the point on the concentration scale where inhibition reaches its midpoint. A lower IC50 goes with inhibition by little substance.

The structures appear in SMILES notation.

The target in the assay is T1, Serine/threonine-protein (Bos taurus, UniProt A0A3Q1MT31).
T1 construct: gene GSK3B
T1 sequence (A0A3Q1MT31 1-419): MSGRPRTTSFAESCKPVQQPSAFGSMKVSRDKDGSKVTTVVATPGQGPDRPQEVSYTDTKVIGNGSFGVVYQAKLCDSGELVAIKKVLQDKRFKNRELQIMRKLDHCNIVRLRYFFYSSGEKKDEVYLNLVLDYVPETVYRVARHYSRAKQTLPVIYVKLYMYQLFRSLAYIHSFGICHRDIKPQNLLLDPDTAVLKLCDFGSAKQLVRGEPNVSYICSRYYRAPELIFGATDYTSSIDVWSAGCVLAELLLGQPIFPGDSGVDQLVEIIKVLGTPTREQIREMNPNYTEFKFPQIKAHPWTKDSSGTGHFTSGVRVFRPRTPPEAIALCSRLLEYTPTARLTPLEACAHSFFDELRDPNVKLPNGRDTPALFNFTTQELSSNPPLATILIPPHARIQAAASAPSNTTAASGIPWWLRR
Put plainly: Inhibition Assay. Conditions: pH 6.5; 25 °C. Here is the method: A mixture containing 100 mM MES-sodium hydroxide (pH 6.5), 1 mM magnesium acetate, 0.5 mM EGTA, 5 mM beta-mercaptoethanol, 0.02% Tween 20, 10% glycerol, 12 ug/ml P-GS1, 41.7 uM [gamma-32P] ATP (68 kBq/ml), bovine cerebral TPK1 and a compound shown in Table (a final mixture contained 1.7% DMSO deriving from a solution of a test compound prepared in the presence of 10% DMSO) was used as a reaction system. The phosphorylation was started by adding ATP, and the reaction was conducted at 25 C. for 2 hours, and then stopped by adding 21% perchloric acid on ice cooling. The reaction mixture was centrifuged at 12,000 rpm for 5 minutes and adsorbed on P81 paper (Whatmann), and then the paper was washed four times with 75 mM phosphoric acid, three times with water and once with acetone. The paper was dried, and the residual radioactivity was measured using a liquid scintillation counter.
Turning to `Cn1c(N2CCCC(c3ccc(N4CCCC4)cc3)C2)nc(-c2ncncc2F)cc1=O` (centres undefined) [US8940738, 5], the IC50 was 33.1 nM. The same measure for `COc1ccc(CCNc2nc(-c3ncncc3F)cc(=O)n2C)cc1OC` [US8940738, 8]: 75.3 nM; for `Cn1c(NCC(=O)c2ccc(Cl)cc2)nc(-c2ncncc2F)cc1=O` [US8940738, 9]: 608 nM; for `Cc1nc(-c2ccc([C@H]3CN(c4nc(-c5ccncn5)c(O)c(=O)n4C)CCO3)cc2)no1` [US8940738, 11]: 6.7 nM. The same measure for `CN(CCc1ccc([N+](=O)[O-])cc1)c1nc(-c2ncncc2F)cc(=O)n1C` [US8940738, 10]: 165 nM. The same measure for `Cn1c(N2CCOC[C@H]2CF)nc(-c2ncncc2F)cc1=O` [US8940738, 3]: 33.4 nM; for `Cc1nc(-c2ccc([C@H]3CN(c4nc(-c5ncncc5F)cc(=O)n4C)CCO3)cc2)no1` [US8940738, 4]: 8.4 nM. As to `C[C@@H]1COCCN1c1nc(-c2ncncc2F)cc(=O)n1C` [US8940738, 2], the midpoint of inhibition, the IC50, lay at 19.7 nM.

`Cc1cccc(N2CCN(c3nc(-c4ncncc4F)cc(=O)n3C)CC2)c1C` [US8940738, 7] gave an IC50 of 78.3 nM.
